Results published in the NIST ThermoML archive (doi:10.1021/je034162x).

Details: 101.33 kPa, Liquid, Hot wire method

CC1CCCC1 [methylcyclopentane]
Details | thermal conductivity [W/m/K] | thermal diffusivity [m2/s]
258.71 K | 0.1273 | –
258.96 K | 0.1271 | –
259.11 K | 0.127 | –
259.52 K | – | 9.4e-08
260.16 K | – | 9.37e-08
260.57 K | – | 9.34e-08
277 K | 0.1212 | –
277.24 K | 0.1211 | –
277.41 K | 0.121 | –
277.86 K | – | 8.8e-08
278.49 K | – | 8.85e-08
278.91 K | – | 8.82e-08
294.9 K | 0.1155 | –
295.15 K | 0.1154 | –
295.32 K | 0.1153 | –
295.76 K | – | 8.24e-08
296.37 K | – | 8.25e-08
296.8 K | – | 8.24e-08
312.57 K | 0.1101 | –
312.82 K | 0.11 | –
312.99 K | 0.1099 | –
313.44 K | – | 7.77e-08
314.04 K | – | 7.73e-08
314.46 K | – | 7.71e-08

C=CCCCC [hex-1-ene]
Details | thermal conductivity [W/m/K] | thermal diffusivity [m2/s]
259.93 K | 0.1304 | –
260.19 K | 0.1305 | –
260.47 K | 0.1303 | –
261.24 K | – | 9.12e-08
262.13 K | – | 9.15e-08
263.04 K | – | 9.14e-08
275.98 K | 0.1247 | –
276.28 K | 0.1249 | –
276.6 K | 0.1245 | –
277.38 K | – | 8.63e-08
278.3 K | – | 8.69e-08
279.25 K | – | 8.67e-08
295.84 K | 0.1181 | –
296.26 K | 0.1178 | –
296.53 K | 0.1179 | –
297.34 K | – | 8.25e-08
298.59 K | – | 8.22e-08
299.33 K | – | 8.2e-08
301.27 K | 0.1161 | –
301.73 K | 0.116 | –
301.96 K | 0.1158 | –
302.77 K | – | 8.05e-08
304.08 K | – | 8.06e-08
304.81 K | – | 8.04e-08
314.67 K | 0.1119 | –
315.04 K | 0.1115 | –
315.38 K | 0.1112 | –
316.21 K | – | 7.67e-08
317.27 K | – | 7.71e-08
318.31 K | – | 7.68e-08
329.14 K | 0.1071 | –
329.53 K | 0.107 | –
329.89 K | 0.1068 | –
330.76 K | – | 7.42e-08
331.81 K | – | 7.39e-08
332.96 K | – | 7.4e-08

C1=CCCC1 [cyclopentene]
Details | thermal conductivity [W/m/K] | thermal diffusivity [m2/s]
258.72 K | 0.1491 | –
258.94 K | 0.1489 | –
259.1 K | 0.1488 | –
259.64 K | – | 1.13e-07
260.25 K | – | 1.12e-07
260.69 K | – | 1.12e-07
276.99 K | 0.1409 | –
277.23 K | 0.1407 | –
277.4 K | 0.1406 | –
277.93 K | – | 1.05e-07
278.57 K | – | 1.05e-07
279.02 K | – | 1.05e-07
294.92 K | 0.133 | –
295.16 K | 0.1328 | –
295.33 K | 0.1327 | –
295.88 K | – | 9.78e-08
296.54 K | – | 9.78e-08
296.99 K | – | 9.74e-08
312.58 K | 0.1258 | –
312.84 K | 0.1256 | –
313.02 K | 0.1255 | –
313.55 K | – | 9.09e-08
314.21 K | – | 9.08e-08
314.67 K | – | 9.05e-08

C=C(C)C(C)C [2,3-dimethyl-1-butene]
Details | thermal conductivity [W/m/K] | thermal diffusivity [m2/s]
258.98 K | 0.117 | –
259.29 K | 0.1169 | –
259.4 K | 0.1168 | –
260.37 K | – | 8.17e-08
261.29 K | – | 8.19e-08
261.55 K | – | 8.16e-08
278.29 K | 0.1108 | –
278.63 K | 0.1106 | –
278.87 K | 0.1105 | –
279.73 K | – | 7.65e-08
280.7 K | – | 7.67e-08
281.39 K | – | 7.68e-08
294.18 K | 0.1058 | –
294.53 K | 0.1056 | –
294.78 K | 0.1055 | –
295.65 K | – | 7.3e-08
296.68 K | – | 7.29e-08
297.38 K | – | 7.28e-08
312.86 K | 0.1002 | –
313.23 K | 0.1 | –
313.5 K | 0.09991 | –
314.43 K | – | 6.88e-08
315.45 K | – | 6.84e-08
316.18 K | – | 6.83e-08
322.51 K | 0.0974 | –
322.9 K | 0.0973 | –
323.18 K | 0.0972 | –
324.07 K | – | 6.6e-08
325.17 K | – | 6.65e-08
325.9 K | – | 6.62e-08
326.52 K | 0.09639 | –
326.91 K | 0.09621 | –
327.21 K | 0.09612 | –
328.13 K | – | 6.58e-08
329.22 K | – | 6.58e-08
330.05 K | – | 6.62e-08

Cc1ccccc1C [1,2-dimethylbenzene]
Details | thermal conductivity [W/m/K] | thermal diffusivity [m2/s]
257.75 K | 0.1368 | –
257.96 K | 0.1369 | –
258.1 K | 0.1368 | –
258.47 K | – | 9.16e-08
259 K | – | 9.21e-08
259.35 K | – | 9.19e-08
277.07 K | 0.1334 | –
277.27 K | 0.1333 | –
277.42 K | 0.1333 | –
277.79 K | – | 8.78e-08
278.28 K | – | 8.75e-08
278.66 K | – | 8.79e-08
295.56 K | 0.1296 | –
295.78 K | 0.1296 | –
295.91 K | 0.1294 | –
296.29 K | – | 8.46e-08
296.81 K | – | 8.48e-08
297.15 K | – | 8.42e-08
312.07 K | 0.1259 | –
312.29 K | 0.1258 | –
312.44 K | 0.1257 | –
312.82 K | – | 8.18e-08
313.34 K | – | 8.17e-08
313.7 K | – | 8.15e-08
328.72 K | 0.1222 | –
328.94 K | 0.122 | –
329.09 K | 0.1219 | –
329.45 K | – | 7.83e-08
329.98 K | – | 7.83e-08
330.35 K | – | 7.81e-08

CC(C)=C(C)C [2,3-dimethyl-2-butene]
Details | thermal conductivity [W/m/K] | thermal diffusivity [m2/s]
258.89 K | 0.1356 | –
259.17 K | 0.1355 | –
259.37 K | 0.1354 | –
260.14 K | – | 9.38e-08
260.96 K | – | 9.41e-08
261.54 K | – | 9.41e-08
278.21 K | 0.1285 | –
278.5 K | 0.1283 | –
278.72 K | 0.1283 | –
279.54 K | – | 8.88e-08
280.38 K | – | 8.85e-08
281 K | – | 8.85e-08
294.09 K | 0.1228 | –
294.4 K | 0.1226 | –
294.63 K | 0.1225 | –
295.49 K | – | 8.48e-08
296.37 K | – | 8.44e-08
297.02 K | – | 8.45e-08
312.76 K | 0.1162 | –
313.09 K | 0.116 | –
313.34 K | 0.1159 | –
314.2 K | – | 7.96e-08
315.15 K | – | 7.95e-08
315.82 K | – | 7.94e-08
322.4 K | 0.1128 | –
322.74 K | 0.1126 | –
322.98 K | 0.1125 | –
323.81 K | – | 7.58e-08
324.73 K | – | 7.56e-08
325.39 K | – | 7.54e-08
326.42 K | 0.1116 | –
326.77 K | 0.1115 | –
327.02 K | 0.1114 | –
327.89 K | – | 7.6e-08
328.9 K | – | 7.63e-08
329.57 K | – | 7.59e-08

Cc1cccc(C)c1C [1,2,3-trimethylbenzene]
Details | thermal conductivity [W/m/K] | thermal diffusivity [m2/s]
257.62 K | 0.1341 | –
257.83 K | 0.134 | –
257.99 K | 0.134 | –
258.45 K | – | 8.6e-08
259 K | – | 8.55e-08
259.4 K | – | 8.56e-08
276.36 K | 0.1312 | –
276.58 K | 0.1312 | –
276.73 K | 0.1311 | –
277.15 K | – | 8.25e-08
277.71 K | – | 8.21e-08
278.1 K | – | 8.2e-08
283.35 K | 0.1303 | –
283.57 K | 0.1302 | –
283.74 K | 0.1302 | –
284.17 K | – | 8.15e-08
284.73 K | – | 8.14e-08
285.14 K | – | 8.15e-08
295.58 K | 0.1281 | –
295.81 K | 0.1279 | –
295.99 K | 0.1279 | –
296.43 K | – | 8.04e-08
297.01 K | – | 8.01e-08
297.45 K | – | 8.04e-08
312.79 K | 0.1252 | –
313.04 K | 0.1252 | –
313.21 K | 0.1251 | –
313.65 K | – | 7.79e-08
314.26 K | – | 7.81e-08
314.68 K | – | 7.78e-08
330.74 K | 0.1218 | –
330.99 K | 0.1218 | –
331.17 K | 0.1217 | –
331.59 K | – | 7.49e-08
332.23 K | – | 7.53e-08
332.65 K | – | 7.51e-08

CCc1ccccc1 [ethylbenzene]
Details | thermal conductivity [W/m/K] | thermal diffusivity [m2/s]
258 K | 0.1375 | –
258.29 K | 0.1374 | –
258.5 K | 0.1373 | –
259.49 K | – | 9.45e-08
260.41 K | – | 9.43e-08
261.06 K | – | 9.41e-08
277.34 K | 0.1328 | –
277.65 K | 0.1327 | –
277.88 K | 0.1326 | –
278.88 K | – | 9.04e-08
279.84 K | – | 9.02e-08
280.53 K | – | 9.02e-08
295.86 K | 0.1282 | –
296.19 K | 0.128 | –
296.42 K | 0.128 | –
297.44 K | – | 8.66e-08
298.45 K | – | 8.67e-08
299.16 K | – | 8.66e-08
312.38 K | 0.124 | –
312.72 K | 0.1238 | –
312.96 K | 0.1237 | –
313.99 K | – | 8.29e-08
315.01 K | – | 8.28e-08
315.73 K | – | 8.28e-08
329.05 K | 0.1199 | –
329.41 K | 0.1197 | –
329.66 K | 0.1196 | –
330.69 K | – | 7.97e-08
331.74 K | – | 7.96e-08
332.49 K | – | 7.95e-08
